# Measured values from EP1339725B1, “DNA METHYL TRANSFERASE INHIBITORS” (priority 2000, dated 2002).
# Key:
# Brucella abortus CcrM = Brucella abortus CcrM (Brucella abortus, UniProt Q2YMK2); format: biochemical
# [1] = system: Bacillus subtilis (ATCC #33234); assay: Bacillus subtilis cell growth assay; format: cell-based; conditions: LB media without antibiotics, 37°C, growth monitored up to 7.5 hours
# [2] = system: Caulobacter crescentus (CB15N); assay: Caulobacter crescentus cell growth assay; format: cell-based; conditions: PYE media with 200 µg/mL ampicillin, 30°C, growth monitored at 630 nm up to 22 hours
# Chain of Brucella abortus CcrM (Q2YMK2 whole entry, looked up): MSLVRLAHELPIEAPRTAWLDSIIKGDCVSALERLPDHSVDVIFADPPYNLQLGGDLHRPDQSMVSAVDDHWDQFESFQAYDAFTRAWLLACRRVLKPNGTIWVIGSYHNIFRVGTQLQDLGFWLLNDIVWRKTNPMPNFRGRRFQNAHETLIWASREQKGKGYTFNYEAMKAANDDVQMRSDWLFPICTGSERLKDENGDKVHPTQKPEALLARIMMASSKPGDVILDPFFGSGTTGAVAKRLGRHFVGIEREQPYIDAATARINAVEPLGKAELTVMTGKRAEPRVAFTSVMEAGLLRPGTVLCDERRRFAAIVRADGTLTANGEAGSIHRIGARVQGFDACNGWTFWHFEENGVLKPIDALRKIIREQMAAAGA
Compound,% reaction Brucella abortus CcrM Activity (Brucella abortus CcrM) [%],IC50 [1] [µM],IC50 [2] [µM]
"Fc1ccc(B(Oc2cccc3cccnc23)c2ccc(F)cc2)cc1 [Compound 11ii, Di-(4-fluorophenyl)borinic acid 8-hydroxyquinoline ester]",61,,
"Clc1ccc(B(Oc2cccc3cccnc23)c2ccc(Cl)cc2)cc1 [Compound 11iii, Di-(4-chlorophenyl)borinic acid 8-hydroxyquinoline ester]",61,,
"c1cnc2c(OB(c3ccc4c(c3)OCO4)c3ccc4c(c3)OCO4)cccc2c1 [Compound 11vi, Di-(3,4-methylenedioxyphenyl)borinic acid 8-hydroxyquinoline ester]",42,,
"c1csc(B(Oc2cccc3cccnc23)c2cccs2)c1 [Compound 11viii, Di-(2-thienyl)borinic acid 8-hydroxyquinoline ester]",74,,
"Cc1ccc2cccc(OB(c3ccc(F)cc3)c3ccc(F)cc3)c2n1 [Compound 12ii, Di-(p-fluorophenyl)borinic acid 8-hydroxyquinaldine ester]",17,,
"Cc1ccc2cccc(OB(c3ccc(Cl)cc3)c3ccc(Cl)cc3)c2n1 [Compound 12iii, Di-(p-chlorophenyl)borinic acid 8-hydroxyquinaldine ester]",40,,
"COc1ccc(B(Oc2cccc3ccc(C)nc23)c2ccc(OC)cc2)cc1 [Compound 12vii, Di-(4-methoxyphenyl)borinic acid 8-hydroxyquinaldine ester]",56,,
"Fc1ccc(B(Oc2ccc(Cl)c3cccnc23)c2ccc(F)cc2)cc1 [Compound 13ii, Di-(p-fluorophenyl)borinic acid 5-chloro-8-hydroxyquinaline ester]",55,,
"Clc1ccc(B(Oc2ccc(Cl)c3cccnc23)c2ccc(Cl)cc2)cc1 [Compound 13iii, Di-(p-chlorophenyl)borinic acid 5-chloro-8-hydroxyquinaline ester]",81,,
"O=[N+]([O-])c1ccc(OB(c2ccc3c(c2)OCO3)c2ccc3c(c2)OCO3)c2ncccc12 [Compound 14vi, Di-(3,4-methylenedioxyphenyl)borinic acid 8-hydroxy-5-nitroquinoline ester]",21,,
"c1ccc(B(OCc2ccccn2)c2ccccc2)cc1 [Compound 16i, Diphenylborinic acid pyridine-2-methanol]",93,,
"c1ccc(B(OC[C@@H]2CCCN2)c2ccccc2)cc1 [Compound 18i, Diphenylborinic acid (S)-(+)-pyrrolidine-2-methanol]",81,> 100,> 100
"NCCOB(c1ccc(F)cc1)c1ccc(F)cc1 [Compound 19ii, Di-(4-fluorophenyl)borinic acid ethanolamine ester]",8,,
Diphenylborinic acid 2-amino-1-phenylpropanol [Compound 17i],114,> 100,> 100
